# In article PMC6620029 (Combinatorial chemistry & high throughput screening, 2009):
# Biological target: human serum albumin (HSA) (Homo sapiens, UniProt P02768)
# Assay: 1D 1H NMR line broadening with HSA
# Assay type: binding
# Sequence of human serum albumin (HSA) (P02768 25-609): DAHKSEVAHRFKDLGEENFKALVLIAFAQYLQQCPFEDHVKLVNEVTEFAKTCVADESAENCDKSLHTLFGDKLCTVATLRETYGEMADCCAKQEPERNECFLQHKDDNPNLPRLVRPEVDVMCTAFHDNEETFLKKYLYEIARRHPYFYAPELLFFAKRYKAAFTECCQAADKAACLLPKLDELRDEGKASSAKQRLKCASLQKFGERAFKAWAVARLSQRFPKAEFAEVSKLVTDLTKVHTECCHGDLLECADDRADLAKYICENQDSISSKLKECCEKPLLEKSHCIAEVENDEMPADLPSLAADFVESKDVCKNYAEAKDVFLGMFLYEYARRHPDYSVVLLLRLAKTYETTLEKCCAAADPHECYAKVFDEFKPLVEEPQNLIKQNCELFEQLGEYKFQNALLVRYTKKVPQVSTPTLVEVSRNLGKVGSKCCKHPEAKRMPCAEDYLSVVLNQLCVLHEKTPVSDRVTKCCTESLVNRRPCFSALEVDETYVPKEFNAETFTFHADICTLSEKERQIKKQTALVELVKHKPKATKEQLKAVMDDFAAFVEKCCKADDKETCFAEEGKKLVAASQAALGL
structure (smiles),measurement,value
Cc1cc(=O)oc2cc(O)ccc12 [7-hydroxy-4-methyl coumarin],1D 1H NMR line broadening with HSA; competition with warfarin,"The NMR resonances of the coumarin-analogue broaden (Fig (6a, b)) from the addition of HSA"
